Experimental data taken from paper PMC12390684 (Viruses, 2025).
Where “and” joins values, the source holds several entries; their conditions need not be identical. Equal values may be shown once. Square brackets hold non-standard residues; d marks the D form. Peptide text beside a SMILES is read from it. dNMeL = CN[C@H](CC(C)C)C(=O)O; Hiv = CC(C)[C@H](O)C(=O)O

Target: IN-GCN2 interaction (6xHis-IN / GST-GCN2) (UniProt P04585+Q9P2K8)
Experiment: biochemical
Format: binding, HIV-1 IN; human GCN2
Details: screen, single dose 100 µM, single replicate; residual AlphaLISA signal normalized to DMSO control

Chain of IN-GCN2 interaction (6xHis-IN / GST-GCN2) (Q9P2K8 192-1024, other chains not shown): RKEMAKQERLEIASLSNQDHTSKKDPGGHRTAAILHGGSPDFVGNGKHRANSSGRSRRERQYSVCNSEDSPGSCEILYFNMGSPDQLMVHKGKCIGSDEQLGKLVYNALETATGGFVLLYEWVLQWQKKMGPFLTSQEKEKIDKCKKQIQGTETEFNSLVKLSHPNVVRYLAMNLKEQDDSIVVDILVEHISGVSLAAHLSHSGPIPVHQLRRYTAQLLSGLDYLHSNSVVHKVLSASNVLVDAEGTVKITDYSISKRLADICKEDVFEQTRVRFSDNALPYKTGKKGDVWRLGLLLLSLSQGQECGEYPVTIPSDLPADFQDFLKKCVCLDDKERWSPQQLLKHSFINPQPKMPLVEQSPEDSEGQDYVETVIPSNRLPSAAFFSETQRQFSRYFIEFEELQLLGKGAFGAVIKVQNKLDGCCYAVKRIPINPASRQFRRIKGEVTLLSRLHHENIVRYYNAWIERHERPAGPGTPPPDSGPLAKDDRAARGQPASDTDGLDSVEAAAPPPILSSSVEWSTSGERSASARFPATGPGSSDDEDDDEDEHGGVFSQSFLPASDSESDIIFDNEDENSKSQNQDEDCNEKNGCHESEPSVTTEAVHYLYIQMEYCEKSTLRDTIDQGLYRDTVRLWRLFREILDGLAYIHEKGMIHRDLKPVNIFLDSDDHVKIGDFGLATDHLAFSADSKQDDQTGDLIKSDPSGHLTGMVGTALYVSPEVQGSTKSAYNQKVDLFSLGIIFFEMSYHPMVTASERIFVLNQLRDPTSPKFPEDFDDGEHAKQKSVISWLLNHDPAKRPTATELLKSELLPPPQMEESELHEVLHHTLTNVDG

SMILES | IN-GCN2 interaction (%)
C/C=C/c1cc2c(c(=O)o1)C(=O)[C@@H](O)[C@H](C)O2 [NSC118343] | 125.37%
Br.CN1CCc2cc3c(cc2C1)OCO3 [NSC121859] | 114.20%
O=C(O)CC1OCC=C2CN3CCC45c6ccccc6NC4C1C2CC35 (stereo not drawn) [NSC121860] | 104.59%
COc1cc2c(cc1OC)C13CCN4CC5=CCOC(CC(=O)O)C(C5CC41)C3N2 (stereo not drawn) [NSC121865] | 122.60%
CC(C)[C@@H]1NC(=O)[C@H](C)OC(=O)[C@@H](C(C)C)NC(=O)[C@@H](C(C)C)OC(=O)[C@H](C(C)C)NC(=O)[C@H](C)OC(=O)[C@@H](C(C)C)NC(=O)[C@@H](C(C)C)OC(=O)[C@H](C(C)C)NC(=O)[C@H](C)OC(=O)[C@@H](C(C)C)NC(=O)[C@@H](C(C)C)OC1=O [NSC122023] | 63.87%
CC(C)C[C@@H]1NC(=O)[C@H](C(C)C)NC(=O)[C@H](C(C)C)OC(=O)[C@@H](CC(C)C)N(C)C(=O)[C@@H](C(C)C)NC(=O)[C@H](C(C)C)OC1=O [NSC122224] (cyclo([Hiv]VL[Hiv][dV][dNMeL])) | 110.56%
COC1=C2C[C@@H](C)C[C@H](OC)[C@H](O)[C@@H](C)/C=C(\C)[C@H](OC(N)=O)[C@@H](OC)/C=C\C=C(/C)C(=O)NC(=CC1=O)C2=O [NSC122750] | 116.21%
COc1cc([C@@H]2c3cc4c(cc3[C@@H](O[C@@H]3O[C@@H]5CO[C@@H](c6cccs6)O[C@H]5[C@H](O)[C@H]3O)[C@H]3COC(=O)[C@H]23)OCO4)cc(OC)c1O [NSC122819] | 96.83%
COc1ccc(-c2cc(=O)c3ccc(O)cc3o2)cc1OC [NSC123383] | 118.02%
COc1c(O)ccc2c1CN1CCc3cc4c(cc3C1C2)OCO4 (stereo not drawn) [NSC123389] | 87.65%
CO[C@H]1[C@@H](O)[C@@H](C)O[C@@H](OC2CCC3(C)C(CCC4C3C(O)CC3(C)C(C5=CC(=O)OC5)CCC43O)C2)[C@@H]1O (stereo partly drawn) [NSC123977] | 127.41%
CCC(C)(O)c1cnc(CC(C)C)c(=O)n1O (stereo not drawn) [NSC127445] | 137.47%
O=C(O)/C=C/CC[C@@H]1SC[C@@H]2NC(=O)N[C@@H]21 [NSC127473] | 109.13%
COC1=CC23CCCN2CCc2cc4c(cc2C3C1O)OCO4 (stereo not drawn) [NSC128487] | 118.57%
C=C1C(=O)OC2CCN3CC=C(COC(=O)C(C)(O)C4(CO4)C1C)C23 (stereo not drawn) [NSC129230] | 110.22%
CC(C)(O)[C@@H]1[C@H]2OC(=O)[C@@H]1[C@]1(O)C[C@H]3O[C@]34C(=O)O[C@H]2[C@]14C [NSC129536] | 112.62%
CC[C@](C)(O)C(=O)O[C@H]1C(=O)O[C@@H]2C[C@H]3C(C)=CC(=O)[C@@H](O)[C@]3(C)[C@H]3[C@@]4(O)OC[C@]32[C@@H]1[C@@H](C)[C@H]4O [NSC132791] | 89.72%
CO[C@H]1/C=C/O[C@@]2(C)Oc3c(C)c(O)c4c(O)c(cc(O)c4c3C2=O)NC(=O)/C(C)=C\C=C\[C@H](C)[C@H](O)[C@@H](C)[C@@H](O)[C@@H](C)[C@H](OC(C)=O)[C@@H]1C [NSC133100] | 111.79%
CCCCCCCCCCCCCCCC(=O)OC[C@H]1O[C@@H](n2ccc(N)nc2=O)[C@@H](O)[C@@H]1O [NSC135962] | 92.71%
NCCOC[C@H](N)C(=O)O [NSC136035] | 90.45%
COC1CCC(OC2CC(C3(C)CCC4(CC(O)C(C)C(C(C)/C=C(\C)C(=O)C(C)CC(C)C(=O)O)O4)O3)OC3(OC(C4OC(O)(CO)C(C)CC4C)CC3C)C2C)OC1C (stereo not drawn) [NSC138320] | 102.91% and 57.85%
COC1C(=O)CCC2(CO2)C1(O)C1(C)OC1CC=C(C)C (stereo not drawn) [NSC141538] | 103.23%
C/C(=C\COc1ccc2ccc(=O)oc2c1)C1=CC(=O)C(C)(C)O1 [NSC142227] | 94.46%
Cl.NC(=O)c1cn(C2OC(CO)C(O)C2O)c2ncnc(N)c12 (stereo not drawn) [NSC143648] | 113.09%
CC(=O)C(=O)N[C@@H]1/C=C(C)/C=C/[C@@H](O)C/C=C(C)/C=C/[C@@H](O)C[C@H]2OC(=O)[C@]1(C)C(=O)[C@@H]2C [NSC145118] | 98.66%
C=C1C(=O)OCC2C(C(=O)O)=CC3C(C)C(C)=CC123 (stereo not drawn) [NSC145150] | 111.51%
CO[C@@H]1/C=C\O[C@]2(C)Oc3c(C)c(O)c4c(O)c(c(CN(C)C)c(O)c4c3C2=O)NC(=O)/C(C)=C\C=C[C@@H](C)[C@@H](O)[C@H](C)[C@@H](O)[C@H](C)[C@H](OC(C)=O)[C@@H]1C [NSC145612] | 71.81%

SMILES | IN-GCN2 interaction (%)
COc1cc2c(cc1OC)C(OC)N(C)c1c-2ccc2cc3c(cc12)OCO3 (stereo not drawn) [NSC146396] | 90.77%
COc1ccc(C[C@@H]2NC[C@@H](O)[C@@H]2OC(C)=O)cc1.Cl [NSC147340] | 88.95%
CC(=O)O[C@H]1C[C@]2(O)[C@@H]3CC[C@@H]4C[C@@H](O)CC[C@]4(C)[C@H]3CC[C@]2(C)[C@H]1C1=CC(=O)OC1 [NSC148790] | 114.66%
C[C@@H]1[C@H](O)[C@@H](C)/C=C/C=C/CC/C=C/C=C/C=C/C=C/C(O[C@H]2O[C@H](C)[C@@H](O)[C@H](N)[C@@H]2O)CC2O[C@](O)(CC(O)C(O)CCC(O)CC(O)CC(O)CC(=O)O[C@H]1C)CC(O)C2C(=O)O (stereo partly drawn) [NSC150817] | 68.70%
COc1cc2cc(c1Cl)N(C)C(=O)C[C@H](OC(=O)[C@H](C)N(C)C(C)=O)[C@]1(C)O[C@H]1[C@H](C)[C@@H]1C[C@@](O)(NC(=O)O1)[C@H](OC)/C=C/C=C(\C)C2 [NSC153858] | 76.02%
COC(=O)[C@H]1[C@H](O)[C@H](C)[C@@H](O)[C@](C)(O)/C=C(\C)C2=C3C(=C(C)C(=O)c4c(O)c(c(C)c(OC(C)=O)c43)NC(=O)/C(C)=C/C=C\[C@](C)(O)[C@@H](O)[C@@H](C)[C@H]1O)OCO2 [NSC156219] | 73.43%
CC1=CC(=O)C2=C(C)CCC3C(C)C(=O)OC3C12 (stereo not drawn) [NSC156236] | 75.72%
C=C1C(=O)O[C@H]2[C@H]1CC/C(C)=C/CC[C@@]1(C)O[C@@H]21 [NSC157035] | 97.44%
CC1=CC2=C(C=O)C(=O)[C@](C)(O)[C@@H](O)C2=CO1 [NSC159632] | 82.72%
COC(=O)[C@@]12OC[C@]34[C@H]([C@@H](O)[C@@H]1O)[C@@]1(C)CC(=O)C(O)=C(C)[C@@H]1C[C@H]3OC(=O)[C@H](OC(=O)/C=C(\C)C(C)C)[C@@H]24 [NSC165563] | 97.95%
COC1=CC(=O)C(C2CC(=O)c3c(O)cc(O)cc3O2)=CC1=O (stereo not drawn) [NSC169517] | 98.58%
COC(=O)C1C(O)C(C)C(O)OC1C(C)C(O)C(C)C=CC=C(C)C(=O)Nc1c(C)c(OC(C)=O)c2c(c1O)C(=O)C(C)=C1OCOC(C(C)=CC(C)=O)=C12 (stereo not drawn) [NSC169627] | 26.60%
C=C(NC(=O)C(=C)NC(=O)c1csc(C2=NC3c4csc(n4)C4NC(=O)c5csc(n5)C(C(C)(O)C(C)O)NC(=O)C5CSC(=N5)/C(=C\C)NC(=O)C(C(C)O)NC(=O)c5csc(n5)C3(CC2)NC(=O)C(C)NC(=O)C(=C)NC(=O)C(C)NC(=O)C(C(C)CC)NC2C=Cc3c(C(C)O)cc(nc3C2O)C(=O)OC4C)n1)C(N)=O (stereo not drawn) [NSC170365] | 53.53%
COC(=O)[C@@]12OC[C@]34[C@H]([C@@H](O)[C@@H]1O)[C@@]1(C)CC(=O)C(O)=C(C)[C@@H]1C[C@H]3OC(=O)[C@H](OC(=O)C=C(C)C)[C@@H]24 [NSC172924] | 122.74%
CC(C)=CC(=O)O[C@H]1[C@H]2[C@H](OC(=O)[C@H]2C)[C@H](O)[C@@H](C)[C@@H]2C=CC(=O)[C@]21C [NSC176503] | 99.27%
CO[C@@H]1/C=C/O[C@@]2(C)Oc3c(C)c(O)c4c(c3C2=O)C(=N[C@@H]2CC[C@@H](O)O[C@H]2C)C=C(NC(=O)/C(C)=C\C(=O)[C@@H]2C[C@@H]2[C@H](O)[C@@H](C)[C@@H](O)[C@@H](C)[C@H](OC(C)=O)[C@@H]1C)C4=O [NSC177383] | 103.89%
CCC(C(=O)C(C)C(O)C(C)CCc1ccc(C)c(O)c1C(=O)O)C1OC(CC)(C2CCC(O)(CC)C(C)O2)CC1C (stereo not drawn) [NSC177406] | 94.24%
CC[C@H]1NC(=O)[C@@H](NC(=O)c2ncccc2O)[C@@H](C)OC(=O)[C@H](c2ccccc2)NC(=O)[C@@H]2CC(=O)CCN2C(=O)[C@H](Cc2ccccc2)N(C)C(=O)[C@@H]2CCCN2C1=O [NSC177858] | 35.20%
COc1ccc(O)c2c(=O)c3c(OC)cc4c(c3oc12)[C@@H]1C=CO[C@@H]1O4 [NSC178249] | 73.18%
CC1=C(C)C(=O)O[C@@H]([C@](C)(O)[C@]2(O)CC[C@@]3(O)[C@@H]4C[C@H]5O[C@]56CC=CC(=O)[C@]6(C)[C@H]4CC[C@]23C)C1 [NSC179834] | 38.70%
CC(=O)C1CCCC(=O)/C=C/C(=O)O1 (stereo not drawn) [NSC180515] | 108.07%
C=C1CCO[C@]2([C@@H](O)[C@@](C)(O)CO)NC(=O)[C@@]1(O)NC2=O [NSC180516] | 114.16%
C[C@H]1O[C@@H](c2ccc3c(c2O)C(=O)C2=C(C3=O)[C@@]3(O)C(=O)C[C@](C)(O)C[C@@]3(O)C=C2)C[C@@H](O)[C@@H]1O [NSC184398] | 10.15%
CC[C@H]1OC(=O)[C@H](C)[C@@H](O[C@H]2C[C@@](C)(O)[C@@H](O)[C@H](C)O2)[C@H](C)[C@@H](O)[C@](C)(O)C[C@@H](C)C(=O)[C@H](C)[C@@H](O)[C@H]1C [NSC209870] | 103.21%
C=C1C(=O)OC2CC1C(O)C/C(C)=C/CC/C(C)=C/C(O)CC2C (stereo not drawn) [NSC210236] | 107.44%
C[C@@H]1C[C@H](C)C[C@H](C)[C@@H](O)CC(=O)O[C@H]([C@@H]2CCC[C@H]2C(=O)O)C/C=C/C=C(/C#N)[C@H](O)[C@@H](C)C1 [NSC216128] | 89.16%
CO[C@H]1C[C@@H]2CC[C@@H](C)[C@@](O)(O2)C(=O)C(=O)N2CCCC[C@H]2C(=O)O[C@H]([C@H](C)C[C@@H]2CC[C@@H](O)[C@H](OC)C2)CC(=O)[C@H](C)/C=C(\C)[C@@H](O)[C@@H](OC)C(=O)[C@H](C)C[C@H](C)/C=C/C=C/C=C/1C [NSC226080] | 54.18%
